Our source for the Kd values is publication PMC3433420 (PLoS ONE, 2012).

Test in all cases: FP saturation binding assay
Conditions in all cases: high-confidence ErbB interactions

One test deals with T1, LCK SH2 domain (Homo sapiens, UniProt P06239).
T1 construct: 93 SH2 and 2 PTB domain-containing constructs; 6X His; thioredoxin; made in house; host or cells: E. coli BL21(DE3)pLysS
Put shortly: (§1)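 KD values come from least-squares fits of fluorescence polarization (ex 530, em 555 nm), corrected for thioredoxin nonspecific binding and plate baseline, with outliers pruned. Fixed 10 nM labeled peptide met a 0.002–10 µM protein series for 20 min at room temperature in HEPES/KCl/Tween/DTT buffer, pH 7.8.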

A further test deals with T2, LYN SH2 domain (Homo sapiens, UniProt P07948).
T2 construct: 93 SH2 and 2 PTB domain-containing constructs; 6X His; thioredoxin; made in house; host or cells: E. coli BL21(DE3)pLysS
T2 sequence (P07948 129-226 limits assumed): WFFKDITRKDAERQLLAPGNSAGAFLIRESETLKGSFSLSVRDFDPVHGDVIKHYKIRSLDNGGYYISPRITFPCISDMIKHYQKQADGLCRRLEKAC
In short, it runs like this: as §1

The next test addresses T3, PIK3R3-N SH2 domain (Homo sapiens, UniProt Q92569).
T3 construct: 6X His; thioredoxin; made in house; host or cells: E. coli BL21(DE3)pLysS
Put shortly: as §1

Test [1] deals with T4, PIK3R3-NC tandem SH2 domains (Homo sapiens, UniProt Q92569).
T4 construct: the tandem protein was included in our analysis with all internal amino acids linking the domains; 6X His; thioredoxin; made in house; host or cells: E. coli BL21(DE3)pLysS
Put shortly:
as §1

The target of a further test is T5, YES1 SH2 domain (Homo sapiens, UniProt P07947).
T5 construct: 6X His; thioredoxin; made in house; host or cells: BL21(DE3)pLysS E. coli
T5 sequence (P07947 158-255 limits assumed): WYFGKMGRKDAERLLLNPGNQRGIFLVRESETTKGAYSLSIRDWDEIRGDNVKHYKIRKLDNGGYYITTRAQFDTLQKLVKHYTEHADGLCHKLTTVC
In short, it runs like this:
as §1

Another test concerns the target T6, PTK6 SH2 domain (Homo sapiens, UniProt Q13882).
T6 construct: from the PTK6 SH2 domain; 6X His; thioredoxin; made in house; host or cells: E. coli BL21(DE3)pLysS
In short, it runs like this:
as §1

Test [2] deals with T7, RASA1-NC tandem SH2 domains (Homo sapiens, UniProt P20936).
T7 construct: the tandem protein was included in our analysis with all internal amino acids linking the domains; 6X His; thioredoxin; made in house; host or cells: E. coli BL21(DE3)pLysS
T7 sequence (P20936 181-441 limits assumed): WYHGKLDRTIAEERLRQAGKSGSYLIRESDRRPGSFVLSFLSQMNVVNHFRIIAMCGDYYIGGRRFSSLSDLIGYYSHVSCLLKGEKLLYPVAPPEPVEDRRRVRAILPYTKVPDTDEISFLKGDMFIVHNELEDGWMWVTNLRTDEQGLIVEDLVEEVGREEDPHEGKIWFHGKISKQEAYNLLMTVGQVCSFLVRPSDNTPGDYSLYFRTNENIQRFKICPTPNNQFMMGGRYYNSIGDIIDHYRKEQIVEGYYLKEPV
Put shortly:
as §1

The mark [3] stands for this setting: Protein PIK3R3-N, FP saturation binding, mean over replicate hits.
Where [4] appears, read: Protein PIK3R3-NC, FP saturation binding, mean over replicate hits.
[5] abbreviates: Protein YES1, FP saturation binding, mean over replicate hits.
Where [6] appears, read: protein LCK, FP, mean of replicate hits.
Where [7] appears, read: protein YES1, FP, mean of replicate hits.

Structures are written as SMILES. Residues, ends and D or L forms follow the SMILES beside them.

T6 sequence (Q13882 78-170 limits assumed): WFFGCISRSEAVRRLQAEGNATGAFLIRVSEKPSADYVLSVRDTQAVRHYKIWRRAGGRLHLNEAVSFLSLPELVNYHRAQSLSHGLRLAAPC
T1 sequence (P06239 127-224 limits assumed): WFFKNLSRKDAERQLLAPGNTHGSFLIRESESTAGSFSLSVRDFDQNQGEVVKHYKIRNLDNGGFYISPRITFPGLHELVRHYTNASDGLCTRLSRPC

Take `CC(C)C[C@H](NC(=O)[C@H](CC(N)=O)NC(=O)[C@@H](N)CC(=O)O)C(=O)N[C@@H](Cc1ccc(O)cc1)C(=O)N[C@@H](Cc1ccc(OP(=O)(O)O)cc1)C(=O)N[C@@H](Cc1c[nH]c2ccccc12)C(=O)N[C@@H](CC(=O)O)C(=O)N[C@@H](CCC(N)=O)C(=O)N[C@@H](CC(=O)O)C(=O)N1CCC[C@H]1C(=O)N1CCC[C@H]1C(=O)N[C@@H](CCC(=O)O)C(=O)N[C@@H](CC(=O)O)C(=O)O` [ErbB2 1222 13-mer] (HELM PEPTIDE1{D.N.L.Y.[O=C([C@H](Cc1ccc(OP(=O)(O)O)cc1)N[*:1])[*:2]].W.D.Q.D.P.P.E.D}$$$$V2.0): the Kd at LCK SH2 domain (Protein LCK, FP saturation binding, mean over replicate hits) amounted to 7.7 µM; at LYN SH2 domain (Protein LYN, FP saturation binding, mean over replicate hits), 4.18 µM; on PIK3R3-N SH2 domain (setting [3]), 9.63 µM; in test [1] (setting [4]) it was 10.3 µM; on YES1 SH2 domain (setting [5]) it was 1.52 µM.
Consider `CC(C)C[C@H](NC(=O)[C@H](Cc1ccc(OP(=O)(O)O)cc1)NC(=O)[C@H](CCC(=O)O)NC(=O)[C@H](CCC(=O)O)NC(=O)[C@H](C)NC(=O)[C@@H](N)CC(=O)O)C(=O)N[C@H](C(=O)N1CCC[C@H]1C(=O)N[C@@H](CCC(N)=O)C(=O)N[C@@H](CCC(N)=O)C(=O)NCC(=O)N[C@@H](Cc1ccccc1)C(=O)N[C@@H](CC(=O)O)C(=O)O)C(C)C` [ErbB2 1023 13-mer] (HELM PEPTIDE1{D.A.E.E.[O=C([C@H](Cc1ccc(OP(=O)(O)O)cc1)N[*:1])[*:2]].L.V.P.Q.Q.G.F.D}$$$$V2.0), for which the Kd at PIK3R3-N SH2 domain (setting [3]) is 5.27 µM; in test [1] (setting [4]) it was 10.7 µM; at PTK6 SH2 domain (Protein PTK6, FP saturation binding, mean over replicate hits), 3.76 µM; in test [2] (Protein RASA1-NC, FP saturation binding, mean over replicate hits), 6.65 µM.
Take `CC(C)[C@H](NC(=O)[C@H](CC(=O)O)NC(=O)[C@@H]1CCCN1C(=O)[C@H](CCC(N)=O)NC(=O)[C@H](CC(N)=O)NC(=O)[C@@H](NC(=O)[C@H](Cc1ccc(OP(=O)(O)O)cc1)NC(=O)[C@H](CCC(=O)O)NC(=O)[C@@H]1CCCN1C(=O)[C@H](CCC(N)=O)NC(=O)[C@@H]1CCCN1)C(C)C)C(=O)N[C@@H](CCCNC(=N)N)C(=O)N[C@@H](CC(=O)O)C(=O)O` [ErbB2 1139 13-mer] (HELM PEPTIDE1{P.Q.P.E.[O=C([C@H](Cc1ccc(OP(=O)(O)O)cc1)N[*:1])[*:2]].V.N.Q.P.D.V.R.D}$$$$V2.0): the Kd came to 9.05 µM at PIK3R3-N SH2 domain (setting [3]), 5.18 µM in test [1] (setting [4]) and 13.4 µM on YES1 SH2 domain (setting [5]).
As to `CSCC[C@H](NC(=O)[C@H](Cc1ccc(OP(=O)(O)O)cc1)NC(=O)[C@H](CCC(=O)O)NC(=O)[C@H](Cc1ccc(O)cc1)NC(=O)CNC(=O)[C@@H](N)CC(C)C)C(=O)N[C@@H](CC(=O)O)C(=O)N[C@H](C(=O)NCC(=O)N[C@@H](CO)C(=O)N[C@@H](CC(=O)O)C(=O)N[C@@H](CC(C)C)C(=O)N[C@@H](CC(=O)O)C(=O)O)C(C)C` [ErbB3 1224 13-mer] (HELM PEPTIDE1{L.G.Y.E.[O=C([C@H](Cc1ccc(OP(=O)(O)O)cc1)N[*:1])[*:2]].M.D.V.G.S.D.L.D}$$$$V2.0), the Kd is 3.02 µM on LCK SH2 domain (setting [6]); 6.86 µM on LYN SH2 domain (protein LYN, FP, mean of replicate hits); 6.58 µM at PTK6 SH2 domain (protein PTK6, FP, mean of replicate hits); 2.52 µM at YES1 SH2 domain (setting [7]).
In the case of `CSCC[C@H](NC(=O)[C@H](CCC(=O)O)NC(=O)[C@H](CCC(=O)O)NC(=O)[C@H](Cc1ccc(OP(=O)(O)O)cc1)NC(=O)CNC(=O)[C@H](CCC(N)=O)NC(=O)[C@H](CCC(=O)O)NC(=O)[C@@H](N)CO)C(=O)N[C@@H](CCCNC(=N)N)C(=O)N[C@@H](C)C(=O)N[C@@H](Cc1ccccc1)C(=O)N[C@@H](CCC(N)=O)C(=O)N[C@@H](CC(=O)O)C(=O)O` [ErbB3 1289 13-mer] (HELM PEPTIDE1{S.E.Q.G.[O=C([C@H](Cc1ccc(OP(=O)(O)O)cc1)N[*:1])[*:2]].E.E.M.R.A.F.Q.D}$$$$V2.0), the dissociation constant (Kd) is 2.23 µM at LCK SH2 domain (setting [6]); 0.3 µM on PIK3R3-N SH2 domain (protein PIK3R3-N, FP, mean of replicate hits); 5.91 µM on YES1 SH2 domain (setting [7]).
For the compound `CSCC[C@H](NC(=O)[C@H](Cc1ccc(OP(=O)(O)O)cc1)NC(=O)CNC(=O)[C@H](CCC(=O)O)NC(=O)[C@H](CCC(=O)O)NC(=O)[C@H](CC(=O)O)NC(=O)[C@H](CC(C)C)NC(=O)[C@H](CCC(=O)O)NC(=O)CNC(=O)[C@H](CCCNC(=N)N)NC(=O)[C@@H]1CCCN1)C(=O)N[C@H](C(=O)N1CCC[C@H]1C(=O)N[C@@H](CCSC)C(=O)N[C@@H](CCCNC(=N)N)C(=O)N[C@@H](CC(=O)O)C(=O)N[C@@H](CCCCN)C(=O)N[C@@H](CC(=O)O)C(=O)O)[C@@H](C)O` [ErbB4 1150 18-mer] (HELM PEPTIDE1{P.R.G.E.L.D.E.E.G.[O=C([C@H](Cc1ccc(OP(=O)(O)O)cc1)N[*:1])[*:2]].M.T.P.M.R.D.K.D}$$$$V2.0), the Kd in test [1] (protein PIK3R3-NC, FP, mean of replicate hits) was 2.5 µM; in test [2] (protein RASA1-NC, FP, mean of replicate hits) it was 0.41 µM.
As for `CC(C)C[C@H](NC(=O)[C@H](Cc1ccc(OP(=O)(O)O)cc1)NC(=O)[C@H](CC(C)C)NC(=O)[C@@H]1CCCN1C(=O)[C@H](CCC(=O)O)NC(=O)[C@H](CC(N)=O)NC(=O)[C@@H](NC(=O)[C@H](Cc1ccc(O)cc1)NC(=O)[C@H](CCC(=O)O)NC(=O)[C@H](CC(=O)O)NC(=O)[C@@H](N)CCC(=O)O)C(C)C)C(=O)N[C@@H](CC(N)=O)C(=O)N[C@H](C(=O)N[C@@H](Cc1ccccc1)C(=O)N[C@@H](C)C(=O)N[C@@H](CC(N)=O)C(=O)N[C@H](C(=O)N[C@@H](CC(=O)O)C(=O)O)[C@@H](C)O)[C@@H](C)O` [ErbB4 1208 18-mer] (HELM PEPTIDE1{E.D.E.Y.V.N.E.P.L.[O=C([C@H](Cc1ccc(OP(=O)(O)O)cc1)N[*:1])[*:2]].L.N.T.F.A.N.T.D}$$$$V2.0), the Kd at LYN SH2 domain (protein LYN, mean of replicate hits) was 5.15 µM; in test [1] (protein PIK3R3-NC, mean of replicate hits) it was 3.02 µM; at PTK6 SH2 domain (protein PTK6, mean of replicate hits), 15.5 µM; in test [2] (protein RASA1-NC, mean of replicate hits), 6.39 µM.
